Measured values taken from patent US20080287406A1, “Compositions and methods for treating medical conditions” (priority 2007, published 2008).
Read-outs that look alike come from different tables or passages of the source.

Assays:
[1] = system: active rheumatoid arthritis; conditions: 3 mg Prednisolone + Placebo, N = 69, ITT (LOCF)
From the text: A visual analog scale (VAS) provides a measure of a one-dimensional quantity. A VAS generally utilizes a representation of distance, such as a picture of a line with hash marks drawn at regular distance intervals, e.g., ten 1-cm intervals. […] This procedure provides a simple and rapid approach to obtaining quantitative information about how the patient is experiencing pain. VAS scales can also be used, e.g., to measure fatigue. VAS scales and their use are described, e.g., in U.S. Pat. Nos. 6,709,406 and 6,432,937.
We conducted a 14 week blinded, randomized study including a split dose corticosteroid therapy or placebo, with regular CRP and inflammatory cytokine measurements. The study population had active rheumatoid arthritis. The subject must otherwise have been in good general health.
(§1) Screening Visit • Day 1 (Baseline Visit)—Start of Run-In Period • Day 14 (±2 days)—End of Run-In Period/Start of Treatment Period • Day 42 (±2 days) • Day 70 (±2 days)—End of Treatment Period/Start of Withdrawal Period • Day 98 (±2 days)—End of Study
All eligible subjects received DMARD therapy in a stable dose. Subjects were evaluated for study eligibility at the Screening visit, which was conducted within 14 days before the first dose of study drug. The subject provided written informed consent to participate in the study before any Screening laboratory samples were collected or evaluations performed.
All subjects were given 3 mg prednisolone alone for 2 weeks (Run-In Period). Subjects were then randomized into treatment groups to additionally receive 10 mg paroxetine, 20 mg paroxetine or placebo tablets for 8 weeks (Combination Treatment Period). The powered study ended after these first 10 weeks. All subjects continued in an un-powered part of the study for an additional 4 weeks (Withdrawal Period). In this portion of the study, half of the subjects on 10 mg or 20 mg paroxetine plus 3 mg prednisolone stopped taking paroxetine, and instead took 3 mg prednisolone plus placebo, while the other half stopped taking prednisolone, and instead took either dose of paroxetine plus placebo. Similarly, half of the subjects on prednisolone plus placebo stopped the prednisolone, and instead took two placebo tablets, while the other half continued the regimen of 3 mg prednisolone plus placebo. A schematic of the study design is shown below.

CRP = CRP measurements in 14 week blinded, randomized study; type: in vivo, human; conditions: 3 mg Prednisolone + Placebo, N = 69, ITT (LOCF)
Experimental: CRP is an acute phase response protein whose production is stimulated by cytokines, particularly interleukin-6 (IL-6). The relationship between inflammatory processes and elevation in plasma CRP and pro-inflammatory cytokines is well known. Typically a serum CRP level of >3 mg/L is considered elevated. Serum CRP levels can be measured by standard techniques known in the art, e.g., ELISA assays (Kamiya Biomedical Co., Seattle, Wash.).
We conducted a 14 week blinded, randomized study including a split dose corticosteroid therapy or placebo, with regular CRP and inflammatory cytokine measurements. The study population had active rheumatoid arthritis.
as §1
The powered study ended after these first 10 weeks. […] A schematic of the study design is shown below.

For `C[C@]12C=CC(=O)C=C1CC[C@@H]1[C@@H]2[C@@H](O)C[C@@]2(C)[C@H]1CC[C@]2(O)C(=O)CO` [Prednisolone, prednisolone], the “Patient Pain Assessment (VAS) Score % Change from baseline, Mean” value ([1]; Day 14) was −13.65%, the “Patient Pain Assessment (VAS) Score Change from baseline, Mean” value ([1]; Day 14) was −7.73 and the “Patient Pain Assessment (VAS) Score Value, Mean” value ([1]; Day 14) was 45.58. The “Patient Pain Assessment (VAS) Score % Change from baseline, Mean” value ([1]; Day 42) was −19.23%, the “Patient Pain Assessment (VAS) Score Change from baseline, Mean” value ([1]; Day 42) was −10.57 and the “Patient Pain Assessment (VAS) Score Value, Mean” value ([1]; Day 42) was 42.74. The “Patient Pain Assessment (VAS) Score % Change from baseline, Mean” value ([1]; Day 70) was −17.84%, the “Patient Pain Assessment (VAS) Score Change from baseline, Mean” value ([1]; Day 70) was −12.28 and the “Patient Pain Assessment (VAS) Score Value, Mean” value ([1]; Day 70) was 41.04. The “CRP % Change from baseline, Mean” value (CRP; Day 14) was 7.11%, the “CRP Change from baseline, Mean” value (CRP; Day 14) was −7.40 and the “CRP Value, Mean” value (CRP; Day 14) was 11.42. For the same compound, the “CRP % Change from baseline, Mean” value (CRP; Day 42) was −17.67%, the “CRP Change from baseline, Mean” value (CRP; Day 42) was −8.61 and the “CRP Value, Mean” value (CRP; Day 42) was 10.22. For the same compound, the “CRP % Change from baseline, Mean” value (CRP; Day 70) was −13.66%, the “CRP Change from baseline, Mean” value (CRP; Day 70) was −8.95 and the “CRP Value, Mean” value (CRP; Day 70) was 9.88.
